# Laboratory results taken from patent US11970494B2, “6-heteroaryloxy benzimidazoles and azabenzimidazoles as JAK2 inhibitors” (Ajax Therapeutics, Inc., priority 2021, dated 2024).
# Target: T1, JAK2 (JH1 domain-catalytic, Y1007F,Y1008F) kinase (Homo sapiens, UniProt O60674, Y1007F/Y1008F)
# T1 construct: made in house; host or cells: transiently transfected HEK293 cells
# Experiment: JAK2 Binding Assay (JAK2 JH1 Domain Binding Assay)
# Conditions: not given
# T1 sequence (O60674 849-1124 Y1007F/Y1008F limits assumed): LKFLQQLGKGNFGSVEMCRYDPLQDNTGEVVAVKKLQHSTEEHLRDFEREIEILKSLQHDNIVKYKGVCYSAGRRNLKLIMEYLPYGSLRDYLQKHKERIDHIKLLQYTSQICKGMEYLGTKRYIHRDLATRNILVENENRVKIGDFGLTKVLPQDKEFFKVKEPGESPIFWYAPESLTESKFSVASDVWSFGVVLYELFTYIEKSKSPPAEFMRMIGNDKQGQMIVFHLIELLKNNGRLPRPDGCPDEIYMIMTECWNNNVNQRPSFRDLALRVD
row,SMILES,Kd [µM]
1,"Cn1cc(C(F)(F)F)cc(Nc2nc3ncc(Oc4ccnc(NC(=O)CF)c4)c(C#N)c3n2C)c1=O [Example I-84, N-(4-((7-cyano-1-methyl-2-((1-methyl-2-oxo-5-(trifluoromethyl)-1,2-dihydropyridin-3-yl)amino)-1H-imidazo[4,5-b]pyridin-6-yl)oxy)pyridin-2-yl)-2-fluoroacetamide]",< 0.01

# Same assay, conditions: JAK2 JH1 domain binding, qPCR detection; read-out: JAK2 Kd
row,SMILES,Kd [µM]
1,"CN1CCO[C@H](CC(=O)Nc2cc(Oc3cnc4nc(Nc5cc(C(F)(F)F)cn(C)c5=O)n(C)c4c3Cl)ccn2)C1 (single isomer, unassigned) [Example I-78-a]",< 0.01
2,"COC(=O)Nc1cc(Oc2cnc3nc(Nc4cc5n(n4)CCN(C)C5=O)n(C)c3c2Cl)ccn1 [Example I-40, Methyl(4-((7-chloro-1-methyl-2-((5-methyl-4-oxo-4,5,6,7-tetrahydropyrazolo[1,5-a]pyrazin-2-yl)amino)-1H-imidazo[4,5-b]pyridin-6-yl)oxy)pyridin-2-yl)carbamate]",1 to 5
3,"CC(=O)Nc1cc(Oc2cnc3nc(Nc4ccc(CN(C)C)c(C(F)(F)F)c4)n(C)c3c2C#N)ccn1 [Example I-105, N-(4-((7-cyano-2-((4-((dimethylamino)methyl)-3-(trifluoromethyl)phenyl)amino)-1-methyl-1H-imidazo[4,5-b]pyridin-6-yl)oxy)pyridin-2-yl)acetamide]",< 0.01
4,"CN(C)C(=O)Nc1cc(Oc2cnc3nc(Nc4cc5n(n4)CCOC5(C)C)n(C)c3c2C#N)ccn1 [Example I-44, 3-(4-((7-cyano-2-((4,4-dimethyl-6,7-dihydro-4H-pyrazolo[5,1-c][1,4]oxazin-2-yl)amino)-1-methyl-1H-imidazo[4,5-b]pyridin-6-yl)oxy)pyridin-2-yl)-1,1-dimethylurea]",< 0.01
5,"Cn1cc(C(F)(F)F)cc(Nc2nc3ncc(Oc4ccnc(NC(=O)CNCCF)c4)c(Cl)c3n2C)c1=O [Example I-87, N-(4-((7-chloro-1-methyl-2-((1-methyl-2-oxo-5-(trifluoromethyl)-1,2-dihydropyridin-3-yl)amino)-1H-imidazo[4,5-b]pyridin-6-yl)oxy)pyridin-2-yl)-2-((2-fluoroethyl)amino)acetamide]",< 0.01
6,"CC(=O)Nc1cc(Oc2cnc3nc(Nc4cc(C(F)(F)F)n(C5CC6(COC6)C5)n4)n(C)c3c2C#N)ccn1 [Example I-106, N-(4-((2-((1-(2-oxaspiro[3.3]heptan-6-yl)-5-(trifluoromethyl)-1H-pyrazol-3-yl)amino)-7-cyano-1-methyl-1H-imidazo[4,5-b]pyridin-6-yl)oxy)pyridin-2-yl)acetamide]",0.01 to 0.05
7,"CN1CCN(C(=O)Nc2cc(Oc3cnc4nc(Nc5cc6n(n5)CCCC6(F)F)n(C)c4c3C#N)ccn2)CC1 [Example I-24, N-(4-((7-cyano-2-((4,4-difluoro-4,5,6,7-tetrahydropyrazolo[1,5-a]pyridin-2-yl)amino)-1-methyl-1H-imidazo[4,5-b]pyridin-6-yl)oxy)pyridin-2-yl)-4-methylpiperazine-1-carboxamide]",0.01 to 0.05
8,"CC(=O)Nc1cc(Oc2cnc3nc(Nc4cc5n(n4)CCOC5(C)C)n(C)c3c2C#N)ccn1 [Example I-112, N-(4-((7-cyano-2-((4,4-dimethyl-6,7-dihydro-4H-pyrazolo[5,1-c][1,4]oxazin-2-yl)amino)-1-methyl-1H-imidazo[4,5-b]pyridin-6-yl)oxy)pyridin-2-yl)acetamide]",< 0.01
9,"CC(=O)Nc1cc(Oc2cnc3nc(Nc4cc(O[C@H]5CCN(C)C5)cc(C(F)(F)F)c4)n(C)c3c2Cl)ccn1 [Example I-99, (S)-N-(4-((7-chloro-1-methyl-2-((3-((1-methylpyrrolidin-3-yl)oxy)-5-(trifluoromethyl)phenyl)amino)-1H-imidazo[4,5-b]pyridin-6-yl)oxy)pyridin-2-yl)acetamide]",< 0.01
10,"CNC(=O)Nc1cc(Oc2cnc3nc(Nc4cc5n(n4)CCCC54CC4)n(C)c3c2C#N)ccn1 [Example I-64, 1-(4-((7-cyano-2-((6′,7′-dihydro-5′H-spiro[cyclopropane-1,4′-pyrazolo[1,5-a]pyridin]-2′-yl)amino)-1-methyl-1H-imidazo[4,5-b]pyridin-6-yl)oxy)pyridin-2-yl)-3-methylurea]",< 0.01
11,"CN(C)CCOC(=O)Nc1cc(Oc2cnc3nc(Nc4cc5n(n4)CCCC5(F)F)n(C)c3c2C#N)ccn1 [Example I-38, 2-(Dimethylamino)ethyl(4-((7-cyano-2-((4,4-difluoro-4,5,6,7-tetrahydropyrazolo[1,5-a]pyridin-2-yl)amino)-1-methyl-1H-imidazo[4,5-b]pyridin-6-yl)oxy)pyridin-2-yl)carbamate]",< 0.01
12,"COC(=O)Nc1cc(Oc2cnc3nc(Nc4cc(C(F)(F)F)n(C5CC6(COC6)C5)n4)n(C)c3c2Cl)ccn1 [Example I-10, Methyl(4-((2-((1-(2-oxaspiro[3.3]heptan-6-yl)-5-(trifluoromethyl)-1H-pyrazol-3-yl)amino)-7-chloro-1-methyl-1H-imidazo[4,5-b]pyridin-6-yl)oxy)pyridin-2-yl)carbamate]",< 0.01
13,"CN(C)C(=O)Nc1cc(Oc2cnc3nc(Nc4cc5n(n4)CCOCC5(C)C)n(C)c3c2C#N)ccn1 [Example I-67, 3-(4-((7-cyano-2-((4,4-dimethyl-4,5,7,8-tetrahydropyrazolo[1,5-d][1,4]oxazepinyl)amino)-1-methyl-1H-imidazo[4,5-b]pyridin-6-yl)oxy)pyridin-2-yl)-1,1-dimethylurea]",< 0.01
14,"CNC(=O)Nc1cc(Oc2cnc3nc(Nc4cc5n(n4)CCOCC5(C)C)n(C)c3c2C#N)ccn1 [Example I-69, 1-(4-((7-cyano-2-((4,4-dimethyl-4,5,7,8-tetrahydropyrazolo[1,5-d][1,4]oxazepin-2-yl)amino)-1-methyl-1H-imidazo[4,5-b]pyridin-6-yl)oxy)pyridin-2-yl)-3-methylurea]",< 0.01
15,"CC(=O)Nc1cc(Oc2cnc3nc(Nc4cc([C@@H]5CCCN5C)cc(C(F)(F)F)c4)n(C)c3c2Cl)ccn1 (single isomer, unassigned) [Example I-102-b]",< 0.01
16,"Cn1c(Nc2cc3n(n2)CCCC3(F)F)nc2ncc(Oc3ccnc(NC(=O)O[C@H]4CCOC4)c3)c(C#N)c21 [Example I-36, (S)-tetrahydrofuran-3-yl(4-((7-cyano-2-((4,4-difluoro-4,5,6,7-tetrahydropyrazolo[1,5-a]pyridin-2-yl)amino)-1-methyl-1H-imidazo[4,5-b]pyridinyl)oxy)pyridin-2-yl)carbamate]",< 0.01
17,"CN(C)C(=O)Nc1cc(Oc2cnc3nc(Nc4cc5n(n4)CCN5C(C)(C)C)n(C)c3c2C#N)ccn1 [Example I-70, 3-(4-((2-((1-(tert-butyl)-2,3-dihydro-1H-imidazo[1,2-b]pyrazol-6-yl)amino)-7-cyano-1-methyl-1H-imidazo[4,5-b]pyridin-6-yl)oxy)pyridin-2-yl)-1,1-dimethylurea]",0.01 to 0.05
18,"Cn1c(Nc2cc3n(n2)CCOC3(C)C)nc2ncc(Oc3ccnc(NC(=O)N4CCC4)c3)c(C#N)c21 [Example I-47, N-(4-((7-cyano-2-((4,4-dimethyl-6,7-dihydro-4H-pyrazolo[5,1-c][1,4]oxazin-2-yl)amino)-1-methyl-1H-imidazo[4,5-b]pyridin-6-yl)oxy)pyridin-2-yl)azetidine-1-carboxamide]",< 0.01

# Further lines, results first:
row,Kd [µM],SMILES
1,< 0.01,Cn1cc(C(F)(F)F)cc(Nc2nc3ncc(Oc4ccnc(NC(=O)C[C@H]5CCCCO5)c4)c(C#N)c3n2C)c1=O [Example I-74-b]
2,< 0.01,"CN1CCN(C(=O)Nc2cc(Oc3cnc4nc(Nc5cc(C(F)(F)F)cn(C)c5=O)n(C)c4c3C#N)ccn2)CC1 [Example I-6, N-(4-((7-cyano-1-methyl-2-((1-methyl-2-oxo-5-(trifluoromethyl)-1,2-dihydropyridin-3-yl)amino)-1H-imidazo[4,5-b]pyridin-6-yl)oxy)pyridin-2-yl)-4-methylpiperazine-1-carboxamide]"
3,< 0.01,"[2H]C([2H])([2H])n1cc(C(F)(F)F)cc(Nc2nc3ncc(Oc4ccnc(NC(C)=O)c4)c(C#N)c3n2C)c1=O [Example I-83, N-(4-((7-cyano-1-methyl-2-((1-(methyl-d3)-2-oxo-5-(trifluoromethyl)-1,2-dihydropyridin-3-yl)amino)-1H-imidazo[4,5-b]pyridin-6-yl)oxy)pyridin-2-yl)acetamide]"
4,< 0.01,"Cn1c(Nc2cc(C(F)(F)F)cn(CCO)c2=O)nc2ncc(Oc3ccnc(NC(=O)C4CC4)c3)c(C#N)c21 [Example I-89, N-(4-((7-cyano-2-((1-(2-hydroxyethyl)-2-oxo-5-(trifluoromethyl)-1,2-dihydropyridin-3-yl)amino)-1-methyl-1H-imidazo[4,5-b]pyridin-6-yl)oxy)pyridin-2-yl)cyclopropanecarboxamide]"
5,< 0.01,"Cn1cc(C(F)(F)F)cc(Nc2nc3ncc(Oc4ccnc(NC(=O)OC5COC5)c4)c(C#N)c3n2C)c1=O [Example I-16, Oxetan-3-yl(4-((7-cyano-1-methyl-2-((1-methyl-2-oxo-5-(trifluoromethyl)-1,2-dihydropyridin-3-yl)amino)-1H-imidazo[4,5-b]pyridin-6-yl)oxy)pyridin-2-yl)carbamate]"
6,< 0.01,"Cn1cc(C(F)(F)F)cc(Nc2nc3ncc(Oc4ccnc(NC(=O)O[C@H]5CCOC5)c4)c(C#N)c3n2C)c1=O [Example I-17, (S)-Tetrahydrofuran-3-yl(4-((7-cyano-1-methyl-2-((1-methyl-2-oxo-5-(trifluoromethyl)-1,2-dihydropyridin-3-yl)amino)-1H-imidazo[4,5-b]pyridin-6-yl)oxy)pyridin-2-yl)carbamate]"
7,< 0.01,"CN1CCO[C@@H](CC(=O)Nc2cc(Oc3cnc4nc(Nc5cc(C(F)(F)F)cn(C)c5=O)n(C)c4c3Cl)ccn2)C1 (single isomer, unassigned) [Example I-78-b]"
8,< 0.01,"Cn1cc(C(F)(F)F)cc(Nc2nc3ncc(Oc4ccnc(NC(=O)CO)c4)c(Cl)c3n2C)c1=O [Example I-86, N-(4-((7-chloro-1-methyl-2-((1-methyl-2-oxo-5-(trifluoromethyl)-1,2-dihydropyridin-3-yl)amino)-1H-imidazo[4,5-b]pyridin-6-yl)oxy)pyridin-2-yl)hydroxyacetamide]"
9,< 0.01,"CC(=O)Nc1cc(Oc2cnc3nc(Nc4cc([C@@H]5CCOC5)nc(C(F)(F)F)c4)n(C)c3c2C#N)ccn1 (single isomer, unassigned) [Example I-95-ii]"
